This is an account of results in patent US9040457B2, “Phenylamidines having a high fungicidal activity and use thereof” (ISAGRO S.P.A., priority 2010, dated 2015).

Holding throughout (assay type): in vivo
One data set has as its system Erysiphe graminis. The data set is described as follows: Fungicidal activity in preventive application (5 days) against Erysiphe graminis on wheat. As to conditions: scale 100 = healthy plant, 0 = completely infected plant; for Activity P5, NT: parts developed during the test (NT); for Activity P5, T: parts treated directly (T). The procedure:
Determination of the Fungicidal Activity in Preventive Application (5 Days) Against Erysiphe graminis on Wheat
(§1) Leaves of wheat plants of the Salgemma variety, grown in pots in a conditioned environment kept at 20° C. and 70% of relative humidity (R.H.), were treated by spraying on both sides of the leaves with the compounds under examination, dispersed in hydroacetonic solutions at 20% by volume of acetone.
After remaining 5 days in a conditioned environment, the plants were infected under dry conditions by shaking over them, in order to distribute the inoculum, plants previously infected by Erysiphe graminis.
The plants were then maintained in the same cell, in a humidity-saturated environment and at a temperature ranging from 18 to 24° C. for 12 days.
(§2) At the end of this period, the external symptoms of the pathogen appeared and it was therefore possible to proceed with the evaluation of the intensity of the infection, on both the parts treated directly with the products (T), and also on the parts which had developed during the test (NT), by means of a visible percentage evaluation scale of the area of affected leafs; the scale comprises, as extremes, the value 100 (healthy plant) and the value 0 (completely infected plant).

The test system of data set [1] is wheat plants. In words: Phytotoxicity (percentage of leaf necrosis) on wheat plants, Puccinia recondita test. The note with it: 0 = completely healthy plant, 100 = completely necrotized plant. The method, then: as §1
(§3) At the same time, the phytotoxicity was evaluated (percentage of leaf necrosis) induced on the wheat plants by the application of the products: in this case, the evaluation scale varies from 0 (completely healthy plant) to 100 (completely necrotized plant).

Data set [2] relates to cereals, cucumbers, tomatoes and other important crops. In words: Phytotoxicity of WO 00/46184 compounds on crops (background statement). As to conditions: at the doses which allow a good fungicidal activity.
Another data set relates to Puccinia recondita. In words: Fungicidal activity in preventive application (5 days) against Puccinia recondita on wheat. As to conditions: scale 100 = healthy plant, 0 = completely infected plant; for Activity P5, NT: parts developed during the test (NT); for Activity P5, T: parts treated directly (T). The procedure: Determination of the Fungicidal Activity in Preventive Application (5 Days) Against Puccinia recondita on Wheat
as §1
After remaining 5 days in a conditioned environment, the plants were sprayed on both sides of the leafs with an aqueous suspension of conidia of Puccinia recondita (2 mg of inoculum per 1 ml of solution for infection).
After being sprayed, the plants were kept in a humidity-saturated environment at a temperature ranging from 18 to 24° C. for the incubation period of the fungus (1 day).
After this period, the plants were put in a greenhouse with R.H. of 70% and at a temperature of 18-24° C. for 14 days.
as §2

In data set [3] the test system is wheat plants. The data set is described as follows: Phytotoxicity (percentage of leaf necrosis) on wheat plants, Erysiphe graminis test. As to conditions: 0 = completely healthy plant, 100 = completely necrotized plant. The procedure: as §1, §3
The subject of another data set is phytopathogenic fungi. The data set is described as follows: Fungicidal activity of WO 00/46184 compound (background statement). The note with it: only exerted satisfactorily in excessively high dosages.

`CCN(C)C=Nc1cc(C)c(Oc2cccc(C(F)(F)F)c2)cc1C` [CR-3, N-ethyl-N-methyl-N′-[4-(3-trifluoromethylphenoxy)-2,5-xylyl]formamidine]: the “Activity P5, NT” value was determined as 85% in the data set on Erysiphe graminis (30 ppm), 96% with Erysiphe graminis (125 ppm), 85% in the data set with Puccinia recondita (30 ppm) and 100% with Puccinia recondita (125 ppm). In addition, the “Activity P5, T” value in the data set with Erysiphe graminis (30 ppm) is 95%; in the data set on Erysiphe graminis (125 ppm) it was 100%; in the data set on Puccinia recondita (30 ppm), 95%; in the data set on Puccinia recondita (125 ppm), 100%. For the same molecule, the “Phytotoxicity % N.F.” value in the data set on wheat plants [1] (30 ppm) is given as 21%; in the data set on wheat plants [1] (125 ppm) it was 33%; with wheat plants [3] (30 ppm) it was 20%; in the data set with wheat plants [3] (125 ppm) it was 35%. In addition, the “leaf necrosis on crops” value in data set [2] is recorded as “marked leaf necrosis”.

Take `CCN(C)C=Nc1cc(C)c(Sc2cccc(OCC(F)(F)C(F)F)c2)cc1C` [Compound 19]: the “Activity P5, NT” value with Erysiphe graminis (30 ppm), in the data set with Erysiphe graminis (125 ppm), in the data set with Puccinia recondita (30 ppm) and in the data set on Puccinia recondita (125 ppm) was 100% each time. Moreover, the “Activity P5, T” value in the data set with Erysiphe graminis (30 ppm), in the data set with Erysiphe graminis (125 ppm), with Puccinia recondita (30 ppm) and with Puccinia recondita (125 ppm) was 100% each time. Further, the “Phytotoxicity % N.F.” value with wheat plants [1] (30 ppm), with wheat plants [1] (125 ppm), in the data set with wheat plants [3] (30 ppm) and in the data set with wheat plants [3] (125 ppm) was 0% in each case.

`CCN(C)C=Nc1cc(C)c(Sc2cccc(OCC(F)(F)C(F)(F)F)c2)cc1C` [Compound 23]: the “Activity P5, NT” value with Erysiphe graminis (30 ppm), in the data set with Erysiphe graminis (125 ppm), in the data set on Puccinia recondita (30 ppm) and in the data set on Puccinia recondita (125 ppm) was 100% in each case. Moreover, the “Activity P5, T” value with Erysiphe graminis (30 ppm), with Erysiphe graminis (125 ppm), in the data set with Puccinia recondita (30 ppm) and in the data set with Puccinia recondita (125 ppm) was 100% each time. The “Phytotoxicity % N.F.” value in the data set with wheat plants [1] (30 ppm), in the data set on wheat plants [1] (125 ppm), in the data set on wheat plants [3] (30 ppm) and in the data set on wheat plants [3] (125 ppm) was 0% throughout.

As to `CCN(C)C=Nc1cc(C)c(Sc2cccc(OC(F)F)c2)cc1C` [Compound 1, N-ethyl-N-methyl-N′-[4-(3-difluoromethoxyphenylthio)-2,5-xylyl]formamidine], the “Activity P5, NT” value in the data set with Erysiphe graminis (30 ppm), in the data set with Erysiphe graminis (125 ppm), in the data set with Puccinia recondita (30 ppm) and in the data set on Puccinia recondita (125 ppm) was 100% each time. In addition, the “Activity P5, T” value with Erysiphe graminis (30 ppm), with Erysiphe graminis (125 ppm), in the data set with Puccinia recondita (30 ppm) and in the data set with Puccinia recondita (125 ppm) was 100% throughout. For the same molecule, the “Phytotoxicity % N.F.” value with wheat plants [1] (30 ppm), in the data set with wheat plants [1] (125 ppm), with wheat plants [3] (30 ppm) and with wheat plants [3] (125 ppm) was 0% in each case.

As for `Cc1cc(Oc2cccc(OC(F)(F)F)c2)c(C)cc1N=CN(C)C` [CR-4, N,N-dimethyl-N′-[4-(3-trifluoromethoxyphenoxy)-2,5-xylyl]formamidine], the “Activity P5, NT” value in the data set with Erysiphe graminis (30 ppm) is listed as 70%; with Erysiphe graminis (125 ppm), 90%; in the data set on Puccinia recondita (30 ppm), 65%; in the data set with Puccinia recondita (125 ppm), 85%. The “Activity P5, T” value in the data set with Erysiphe graminis (30 ppm) is on record as 75%; with Erysiphe graminis (125 ppm) it was 95%; in the data set with Puccinia recondita (30 ppm), 70%; in the data set on Puccinia recondita (125 ppm) it was 90%. The “Phytotoxicity % N.F.” value with wheat plants [1] (30 ppm) is recorded as 20%; in the data set on wheat plants [1] (125 ppm), 30%; in the data set with wheat plants [3] (30 ppm) it was 15%; in the data set on wheat plants [3] (125 ppm), 30%. In addition, in data set [2], the “leaf necrosis on crops” value is “marked leaf necrosis”.

On to `Cc1cc(Oc2cccc(OCC(F)(F)F)c2)c(C)cc1N=CN(C)C` [CR-5, N,N-dimethyl-N′-{4-[3-(2,2,2-trifluoroethoxy)phenoxy]-2,5-xylyl}formamidine], for which the “Activity P5, NT” value with Erysiphe graminis (30 ppm) is reported as 65%; in the data set on Erysiphe graminis (125 ppm) it was 80%; with Puccinia recondita (30 ppm) it was 60%; with Puccinia recondita (125 ppm) it was 80%. In addition, the “Activity P5, T” value in the data set on Erysiphe graminis (30 ppm) is 70%; with Erysiphe graminis (125 ppm), 90%; in the data set with Puccinia recondita (30 ppm), 65%; in the data set on Puccinia recondita (125 ppm) it was 85%. Also, the “Phytotoxicity % N.F.” value in the data set on wheat plants [1] (30 ppm) is 15%; with wheat plants [1] (125 ppm) it was 25%; in the data set with wheat plants [3] (30 ppm), 20%; in the data set with wheat plants [3] (125 ppm), 30%. The “leaf necrosis on crops” value in data set [2] was “marked leaf necrosis”.

Consider `Cc1cc(Oc2cccc(C(F)(F)F)c2)c(C)cc1N=CN(C)C` [CR-1, N,N-dimethyl-N′-[4-(3-trifluoromethylphenoxy)-2,5-xylyl]-formamidine], for which the “Activity P5, NT” value with Erysiphe graminis (30 ppm) is reported as 76%; with Erysiphe graminis (125 ppm), 90%; with Puccinia recondita (30 ppm), 70%; with Puccinia recondita (125 ppm), 90%. The “Activity P5, T” value in the data set with Erysiphe graminis (30 ppm) came to 90%; in the data set with Erysiphe graminis (125 ppm) it was 100%; in the data set with Puccinia recondita (30 ppm) it was 80%; in the data set on Puccinia recondita (125 ppm), 100%. The “Phytotoxicity % N.F.” value in the data set on wheat plants [1] (30 ppm) was 14%; in the data set with wheat plants [1] (125 ppm), 26%; with wheat plants [3] (30 ppm), 15%; in the data set with wheat plants [3] (125 ppm), 25%. In addition, the “leaf necrosis on crops” value in data set [2] is “marked leaf necrosis”.

In the case of `CCN(C)C=Nc1cc(C)c(Sc2cccc(OC(F)(F)C(F)F)c2)cc1C` [Compound 2, N-ethyl-N-methyl-N′-{4-[3-(1,1,2,2-tetrafluoroethoxy)phenylthio]-2,5-xylyl}formamidine], the “Activity P5, NT” value with Erysiphe graminis (30 ppm), with Erysiphe graminis (125 ppm), with Puccinia recondita (30 ppm) and with Puccinia recondita (125 ppm) was 100% each time. The “Activity P5, T” value in the data set on Erysiphe graminis (30 ppm), in the data set on Erysiphe graminis (125 ppm), in the data set on Puccinia recondita (30 ppm) and in the data set on Puccinia recondita (125 ppm) was 100% in each case. Besides, the “Phytotoxicity % N.F.” value in the data set with wheat plants [1] (30 ppm), in the data set with wheat plants [1] (125 ppm), in the data set with wheat plants [3] (30 ppm) and in the data set with wheat plants [3] (125 ppm) was 0% throughout.

With `Cc1cc(Sc2cccc(C(F)(F)F)c2)c(C)cc1N=CN(C)C` [CR-2, N,N-dimethyl-N′-[4-(3-trifluoromethylphenylthio)-2,5-xylyl]-formamidine], the “Activity P5, NT” value in the data set on Erysiphe graminis (30 ppm) was determined as 65%; in the data set with Erysiphe graminis (125 ppm), 80%; in the data set on Puccinia recondita (30 ppm), 60%; in the data set with Puccinia recondita (125 ppm) it was 90%. Also, the “Activity P5, T” value came to 78% in the data set with Erysiphe graminis (30 ppm), 95% with Erysiphe graminis (125 ppm), 68% in the data set on Puccinia recondita (30 ppm) and 95% with Puccinia recondita (125 ppm). For the same molecule, the fungicidal activity entry with phytopathogenic fungi is on record as “insufficient”. In addition, the “Phytotoxicity % N.F.” value in the data set on wheat plants [1] (30 ppm), in the data set on wheat plants [1] (125 ppm), in the data set on wheat plants [3] (30 ppm) and in the data set with wheat plants [3] (125 ppm) was 0% in each case.

`CCN(C)C=Nc1cc(C)c(Sc2cccc(OCC(F)(F)F)c2)cc1C` [Compound 15]: the “Activity P5, NT” value in the data set on Erysiphe graminis (30 ppm), in the data set on Erysiphe graminis (125 ppm), in the data set on Puccinia recondita (30 ppm) and in the data set with Puccinia recondita (125 ppm) was 100% throughout. Also, the “Activity P5, T” value in the data set on Erysiphe graminis (30 ppm), in the data set on Erysiphe graminis (125 ppm), in the data set with Puccinia recondita (30 ppm) and with Puccinia recondita (125 ppm) was 100% throughout. Also, the “Phytotoxicity % N.F.” value in the data set with wheat plants [1] (30 ppm), with wheat plants [1] (125 ppm), with wheat plants [3] (30 ppm) and with wheat plants [3] (125 ppm) was 0% throughout.
